In the supplement of paper PMC11061612:

Legend:
[1] = test system: ESO26 (Esophageal Adenocarcinoma); assay: Bliss excess, mean over the matrix (fraction); higher = more synergy
Procedure, shortened: (§1)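 Cell lines grown in DMEM/F12 or RPMI with 10% FBS were plated in 1536-well plates and held 24 hours at 37°C, 5% CO2 before 72 hours of exposure to two-drug dose matrices, with DMSO typically at 0.2%. CellTiter-Glo 2.0 luminescence gave viability, which was converted to inhibition. Vehicle wells were set to 0 and blank wells to 1. Combination Emax is the second-highest inhibition in the matrix, and Bliss excess is the observed combination effect minus the expected EA + EB − EA·EB, where EA and EB are the single-agent effects.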

[2] = test system: JVM-2 (B-Cell Non-Hodgkin's Lymphoma); assay: as above
Procedure, shortened: as §1

[3] = test system: DU-4475 (Breast Carcinoma); assay: as above
Procedure, shortened: as §1

[4] = test system: huH-1 (Hepatocellular Carcinoma); assay: as above
Procedure, shortened: as §1

A204 (Rhabdomyosarcoma) = assay: as above
Procedure, shortened: as §1

[5] = test system: LS-411N (Colorectal Carcinoma); assay: as above
Procedure, shortened: as §1

[6] = test system: G-402 (Other Solid Carcinomas); assay: as above
Procedure, shortened: as §1

5637 (Bladder Carcinoma) = assay: as above
Procedure, shortened: as §1

COLO-792 (Melanoma) = assay: as above
Procedure, shortened: as §1

NB13 (Neuroblastoma) = assay: as above
Procedure, shortened: as §1

[7] = test system: JIMT-1 (Breast Carcinoma); assay: as above
Procedure, shortened: as §1

[8] = test system: KYSE-140 (Esophageal Squamous Cell Carcinoma); assay: as above
Procedure, shortened: as §1

[9] = test system: GCT (Other Solid Carcinomas); assay: as above
Procedure, shortened: as §1

[10] = test system: A2780 (Ovarian Carcinoma); assay: combination Emax (second highest fraction inhibited in the dose matrix, 72 h); higher = more inhibition; extreme values may be limits of the assay
Procedure, shortened: as §1

769-P (Kidney Carcinoma) = assay: as above
Procedure, shortened: as §1

[11] = test system: HCC1395 (Breast Carcinoma); assay: as above
Procedure, shortened: as §1

[12] = test system: CGTH-W-1 (Thyroid Gland Carcinoma); assay: as above
Procedure, shortened: as §1

[13] = test system: SK-HEP-1 (Hepatocellular Carcinoma); assay: as above
Procedure, shortened: as §1

EW-7 (Ewing's Sarcoma) = assay: as above
Procedure, shortened: as §1

[14] = test system: JHH-2 (Hepatocellular Carcinoma); assay: as above
Procedure, shortened: as §1
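For Bliss excess, mean over the matrix in this document: after 72 h of two-drug dosing.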

SMILES	Bliss excess [1]	Bliss excess [2]	Bliss excess [3]	Bliss excess [4]	Bliss excess (A204 (Rhabdomyosarcoma))	Bliss excess [5]	Bliss excess [6]	Bliss excess (5637 (Bladder Carcinoma))	Bliss excess (COLO-792 (Melanoma))	Bliss excess (NB13 (Neuroblastoma))	Bliss excess [7]	Bliss excess [8]	Bliss excess [9]	combination Emax [10]	combination Emax (769-P (Kidney Carcinoma))	combination Emax [11]	combination Emax [12]	combination Emax [13]	combination Emax (EW-7 (Ewing's Sarcoma))	combination Emax [14]
Cc1nc(Nc2ncc(C(=O)Nc3c(C)cccc3Cl)s2)cc(N2CCN(CCO)CC2)n1 [Dasatinib] + CC(=O)Nc1cccc(-n2c(=O)n(C3CC3)c(=O)c3c(Nc4ccc(I)cc4F)n(C)c(=O)c(C)c32)c1 [Trametinib] (first compound max 2 µM, 7x7, partner max 1 µM)	-0.0892	-0.0158	0.011	-0.0076	-0.0955	0.0509	-0.0618	0.0923	-0.0726	-0.0347	0.0276	-0.132	-0.119	0.841	0.814	0.527	0.982	0.325	0.213	0.973
COc1cc2ncnc(Nc3ccc(F)c(Cl)c3)c2cc1OCCCN1CCOCC1 [Gefitinib] + CC(C)n1c(=O)n(C)c2cnc3cc(F)c(-c4ccc(OCCCN5CCCCC5)nc4)cc3c21 [AZD1390] (first compound max 10 µM, 7x7, partner max 0.3 µM)	-0.0832	-0.0645	-0.0427	-0.0593	-0.0563	-0.0463	-0.0659	-0.0467	-0.0612	-0.0433	-0.0248	-0.0919	-0.065	0.485	0.442	0.192	0	0.369	0.328	0.304
COc1cc2c(cc1OCCCCCOc1cc3c(cc1OC)C(=O)N1C=C(C)C[C@H]1C=N3)N=C[C@@H]1CC(C)=CN1C2=O [SG3199] + O=C(c1cc(Cc2n[nH]c(=O)c3ccccc23)ccc1F)N1CCN(C(=O)C2CC2)CC1 [Olaparib] (first compound max 0.001 µM, 7x7, partner max 10 µM)	0.0119	-0.0219	0.0741	-0.0278	-0.0686	-0.0255	-0.0289	-0.0278	-0.0373	-0.0143	-0.0188	-0.0186	-0.0325	0.422	0.174	0.181	0.168	0.21	0.303	0.192
C[C@@H](c1ccc2nccn2c1)n1nnc2ncc(-c3cnn(C)c3)nc21 [Savolitinib] + CC1(C)CCC(CN2CCN(c3ccc(C(=O)NS(=O)(=O)c4ccc(NCC5CCOCC5)c([N+](=O)[O-])c4)c(Oc4cnc5[nH]ccc5c4)c3)CC2)=C(c2ccc(Cl)cc2)C1 [Venetoclax] (first compound max 1 µM, 7x7, partner max 1 µM)	-0.0547	-0.0472	-0.0533	-0.0804	-0.0629	-0.0349	-0.067	-0.0523	-0.0601	-0.073	-0.0354	-0.0257	-0.0727	0.14	0.0824	0.247	0.0942	0.164	0.118	0.0863
C[C@@H](c1ccc2nccn2c1)n1nnc2ncc(-c3cnn(C)c3)nc21 [Savolitinib] + Cc1c2c(nn1C)CSCc1cc(n(C)n1)CSc1cc(c3ccccc3c1)OCCCc1c(C(=O)O)n(C)c3c-2c(Cl)ccc13 [AZD5991] (first compound max 1 µM, 7x7, partner max 1 µM)	-0.0026	-0.021	0.007	-0.0586	-0.0502	-0.0232	-0.0611	-0.0456	-0.0446	-0.0206	-0.0551	-0.0301	-0.054	0.499	0.158	0.478	0.173	0.237	0.133	0.142
